Read-outs that look alike come from different tables or passages of the source.
What was measured:
Assay type in all cases: cell-based
[1] = tested on: Adipocytes (method: 3T3-L1 adherent cells); experiment: Calcein-AM cytotoxicity / cell viability assay
Experimental: Cytotoxicity Assay in Adherent Cells (3T3-L1) using the Calcein-AM Method:
[…] […] […] Then, the wells were washed and the cells incubated with Calcein-AM (1 μM) (Molecular Probes) for 30 min. Then the fluorescence of viable cells was detected in a microtitre plate reader (TECAN Genius Pro). Using this method the uptake of Calcein-AM by viable cells is measured. Calcein-AM his hydrolysed by cellular esterases and then the fluorescence emitted by calcein is detected in the plate reader (excitation: 490 nm, emission: 515 nm)
[…] In this type of assay the higher RFU (relative fluorescent unit) correspond to viable cells.

[2] = tested on: Primary human preadipocytes; experiment: LDH release cytotoxicity assay (CytoTox-ONE) in undifferentiated preadipocytes
Experimental: (§1) Primary human preadipocytes were obtained from Promocell (Heidelberg, Germany). The Order No is C-12731 and the Lot-No 5112201 (abdomen, person).
Human preadipocytes cells were maintained in Preadipocyte Growth Medium (DMEM; BioWhitaker Cat: BE12-604F/U1; Lot N° 6MB0130 containing 10% heat-inactivated FCS and 1% penicillin-streptomycin) at 37° C. in a humidified atmosphere of 5% CO2. The cells were expanded in several T75 flasks to reach 60-80% confluence. To differentiate the preadipocytes (10^4 cells/well) were grown in 96 well plates to reach confluence. At this point (day 0), cells were switched to differentiation medium (DMEM, 10% FBS, 0.25 μM dexamethasone, 0.25 mM IBMX, and […] insulin) for 3 days, with one medium change in between. On day 3, the dexamethasone and IBMX was removed leaving insulin on the cells for an additional 4 days, changing the medium every 2 days. Thereafter, the cells were maintained in the original propagation DMEM, changing medium every 2-3 days until use. Plates where cells are >75% differentiated were used for experiments (day 10 post-induction). […]
Cytotoxicity assays: The CytoTox-ONE™ Homogeneous Membrane Integrity Assay from Promega was used to study LDH release (The Lot-No 234242/27/09/08). Differentiated adipocytes were treated with the test compounds for either 24 or 48 hours and the release of LDH detected using the fluorimetric assay CytoTox-ONE (see above) according to the manufacturer's instructions. Maximum LDH release was determined by complete lysis of cells using 0.1% Triton X-100. […] The fluorescence was detected in a Genius Pro apparatus using specific 96 microwells plates for fluorescence. […]
(§2) The percentages cytotoxicity by LDH release were calculated according to the manufacturer's instruction (http://www.promega.com/tbs/tb306/tb306.pdf)
(§3) According to this calculation the spontaneous release in untreated cells may indicate some cytotoxicity in untreated cells. […] This type of calculation may induce to misinterpretations and therefore the specific cytotoxicity was calculated according to the following formula: […]

[3] = tested on: differentiated human primary adipocytes; experiment: LDH release cytotoxicity assay (CytoTox-ONE) in differentiated adipocytes
Experimental: as §1
Human preadipocytes cells were maintained in Preadipocyte Growth Medium (DMEM; BioWhitaker Cat: BE12-604F/U1; Lot N° 6MB0130 containing 10% heat-inactivated FCS and 1% penicillin-streptomycin) at 37° C. in a humidified atmosphere of 5% CO2. The cells were expanded in several T75 flasks to reach 60-80% confluence. To differentiate the preadipocytes (10^4 cells/well) were grown in 96 well plates to reach confluence. At this point (day 0), cells were switched to differentiation medium (DMEM, 10% FBS, 0.25 μM dexamethasone, 0.25 mM IBMX, and […] insulin) for 3 days, with one medium change in between. On day 3, the dexamethasone and IBMX was removed leaving insulin on the cells for an additional 4 days, changing the medium every 2 days. Thereafter, the cells were maintained in the original propagation DMEM, changing medium every 2-3 days until use. Plates where cells are >75% differentiated were used for experiments (day 10 post-induction). Adipocytes are round and full of easily distinguishable fat globules after 7 days of culture.
Cytotoxicity assays: The CytoTox-ONE™ Homogeneous Membrane Integrity Assay from Promega was used to study LDH release (The Lot-No 234242/27/09/08). Differentiated adipocytes were treated with the test compounds for either 24 or 48 hours and the release of LDH detected using the fluorimetric assay CytoTox-ONE (see above) according to the manufacturer's instructions. Maximum LDH release was determined by complete lysis of cells using 0.1% Triton X-100. Control cells treated with water alone were used to determine the baseline level of LDH release (0% cell death). The fluorescence was detected in a Genius Pro apparatus using specific 96 microwells plates for fluorescence. We used excitation filters in the 530-570 nm range and emission filters in the 580-620 nm range.
as §2, §3
S.C. values below 0% were considered arbitrary as 0% of substance-induced cytotoxicity.
To confirm the cytotoxic activity of the test substance at certain concentrations, undifferentiated (24 h treatment) and differentiated human primary adipocytes the cultures were treated with the indicated dilutions during 24 h and 48 h and the release of LDH measured in the supernatants.

[4] = Table 2, dilution 1:12800, 24 h

Compound | Adipocytes (Calcein-AM) 24 h, toxicity ([1]; dilution 1:50) | Adipocytes (Calcein-AM) 24 h, toxicity ([1]; dilution 1:100) | Adipocytes (Calcein-AM) 24 h, toxicity ([1]; dilution 1:200) | Adipocytes (Calcein-AM) 24 h, toxicity ([1]; dilution 1:400) | Adipocytes (Calcein-AM) 24 h, toxicity ([1]; dilution 1:6400) | Adipocytes (Calcein-AM) 24 h, toxicity ([1]; dilution 1:12800) | Adipocytes (LDH) 24 h, toxicity ([3]; Table 2, dilution 1:50, 24 h) | Adipocytes (LDH) 24 h, toxicity ([3]; Table 2, dilution 1:100, 24 h) | Adipocytes (LDH) 24 h, toxicity ([3]; Table 2, dilution 1:200, 24 h) | Adipocytes (LDH) 24 h, toxicity ([3]; Table 2, dilution 1:800, 24 h) | Adipocytes (LDH) 24 h, toxicity ([3]; Table 2, dilution 1:1600, 24 h) | Adipocytes (LDH) 24 h, toxicity ([3]; Table 2, dilution 1:3200, 24 h) | Adipocytes (LDH) 24 h, toxicity ([3]; Table 2, dilution 1:6400, 24 h) | Adipocytes (LDH) 24 h, toxicity [3, 4] | further results
CCCCCCCCCCCCOS(=O)(=O)[O-].[Na+] [sodium laurylsulfate] | – | – | – | – | – | – | – | – | – | – | – | – | – | – | potency compared with the other inventive substances ([1]; cytotoxicity on adipocytes): even more potent; Adipocytes (Calcein-AM) 6 h, toxicity ([1]; dilution 1:4000): Toxic; Adipocytes (Calcein-AM) 24 h, toxicity ([1]; dilution 1:4000): Toxic; Adipocytes (Calcein-AM) 6 h, toxicity ([1]; dilution 1:16,000): Toxic; Adipocytes (Calcein-AM) 24 h, toxicity ([1]; dilution 1:16,000): Toxic; Adipocytes (Calcein-AM) 6 h, toxicity ([1]; dilution 1:512000): Non-Toxic; Adipocytes (Calcein-AM) 24 h, toxicity ([1]; dilution 1:512000): Non-Toxic
polyethoxylated castor oil [Test Substance 2] | Toxic | Toxic | Toxic | Toxic | Non-toxic | Non-toxic | Toxic | Toxic | Toxic | Non-toxic | Non-toxic | Non-toxic | Non-toxic | Non-toxic | Preadipocytes (LDH) 24 h, cytotoxicity ([2]; dilution 1:512, 24 h treatment): Toxic (32.6%); Preadipocytes (LDH) 24 h, toxicity ([2]; dilution 1:10000, 24 h treatment): Non-toxic; Differentiated Adipocytes (LDH) 24 h, cytotoxicity ([3]; Table 1, dilution 1:512, 24 h): Toxic (56.1%); Differentiated Adipocytes (LDH) 24 h, toxicity ([3]; Table 1, dilution 1:10000, 24 h): Non-toxic; Adipocytes (LDH) 24 h, cytotoxicity ([3]; Table 2, dilution 1:400, 24 h): Toxic (43.6%); Differentiated Adipocytes (LDH) 48 h, cytotoxicity ([3]; dilution 1:512, 48 h): Toxic (100%); Differentiated Adipocytes (LDH) 48 h, cytotoxicity ([3]; dilution 1:10000, 48 h): toxic (20.3%)
polysorbate 80 [Test Substance 1] | Toxic | Toxic | Toxic | Toxic | Non-toxic | Non-toxic | Toxic | Toxic | Toxic | Toxic | Non-toxic | Non-toxic | Non-toxic | Non-toxic | Adipocytes (Calcein-AM) 24 h, toxicity ([1]; dilution 1:800): Toxic; Adipocytes (Calcein-AM) 24 h, toxicity ([1]; dilution 1:3200): Non-toxic; Preadipocytes (LDH) 24 h, cytotoxicity [2]: Toxic (38.1%); Differentiated Adipocytes (LDH) 24 h, cytotoxicity [3]: Toxic (42.8%); Differentiated Adipocytes (LDH) 48 h, cytotoxicity [3]: Toxic (100%); Adipocytes (LDH) 24 h, toxicity ([3]; Table 2, dilution 1:400, 24 h): Toxic

Source: US20100144890A1, “USE OF A SURFACTANT FOR THE PREPARATION OF A FORMULATION FOR THE TREATMENT OF ADIPOSE DISEASES” (priority 2007, published 2010)
